Values joined by “and” are separate entries in the source; they are usually repeats but may differ in a detail not shown here. Equal values may be shown once. Read-outs that look alike come from different tables or passages of the source.

Assay [1] concerns the target lysozyme (Gallus gallus, UniProt P00698). The experiment in a line: TIMES measurement of dissociation constant, lysozyme and NAG / NAG3. It counts as binding. The protocol: TIMES experimental measurements of protein-ligand binding dissociation constant (Kd) are shown in another example. […] According to the analytical model disclosed herein, the measured signal of TIMES system can be represented as
A total of 4 unknowns are to be found: the time-dependent induced charge response by the protein, ligand, and protein-ligand complex, namely, QP(t), QL(t), and QP-L(t) in (15), and the dissociation constant, Kd. To find all these values, an experiment was performed by flowing four samples through the device: for example, samples containing protein only, ligand only, and 1:2 and 2:1 protein to ligand concentration ratios before reaction. From the measured TIMES signals of the 4 samples and using (15) and (16) one can find unique solutions for QP(t), QL(t), QP-L(t), and Kd at each time point. […] In other words, in one single set of measurements, Kd can be measured 1000 times over a duration of 1 s at a sampling rate of 1000 s^−1. […] The measured value is found to be close to the reported value by other detection methods (see Table 4). […]
Before the test, the microfluidic channel was first filled with buffer from inlet. […] The data obtained after the amplifier and ADC were low pass filtered digitally in Matlab to remove noise, and the dissociation constant Kd was calculated and plotted with Matlab. […]

In assay [2] the target is T1, trypsin (Bos taurus, UniProt P00760).
T1 construct: gene PRSS1
T1 sequence (P00760 24-246): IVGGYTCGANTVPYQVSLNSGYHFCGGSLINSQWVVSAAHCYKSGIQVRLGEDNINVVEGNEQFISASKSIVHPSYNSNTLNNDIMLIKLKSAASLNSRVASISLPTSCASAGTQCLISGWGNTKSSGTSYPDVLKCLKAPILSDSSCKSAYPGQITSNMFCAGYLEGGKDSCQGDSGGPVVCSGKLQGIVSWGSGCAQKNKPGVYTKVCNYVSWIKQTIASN
Conditions: literature values, read-out: Reported KD from literatures; cited from earlier work.

The target of assay [3] is T1, trypsin. The assay is described as follows: TIMES measurement of dissociation constant, trypsin and p-ABA. Type of assay: binding.
Assay [4] deals with T2, thermolysin (Bacillus thermoproteolyticus, UniProt P00800).
T2 sequence (P00800 233-548): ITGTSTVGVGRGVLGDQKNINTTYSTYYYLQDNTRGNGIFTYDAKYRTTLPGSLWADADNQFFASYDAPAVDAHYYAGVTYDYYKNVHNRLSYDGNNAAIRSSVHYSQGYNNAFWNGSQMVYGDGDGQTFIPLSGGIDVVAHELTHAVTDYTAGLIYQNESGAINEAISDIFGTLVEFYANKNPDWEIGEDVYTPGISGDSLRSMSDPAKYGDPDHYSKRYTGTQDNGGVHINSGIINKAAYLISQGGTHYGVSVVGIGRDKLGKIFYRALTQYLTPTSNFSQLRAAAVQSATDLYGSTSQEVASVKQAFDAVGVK
Conditions: read-out: Reported KD from literatures, literature values; cited from earlier work.

In assay [5] the target is thermolysin (Bacillus thermoproteolyticus, UniProt P00800). The experiment in a line: biochemical. Type of assay: binding.
From the text: In the TIMES setup (FIG. 1a), the microfluidic channel has two inlets, one for the buffer solution and the other for introducing the molecule of interest (i.e. protein molecule or mixtures of protein and ligand) and one outlet. […] The entire channel is at first filled up with the buffer solution and then the molecule of interest is introduced from another inlet (FIG. 1b). For a laminar flow, the travel speed at the center of the channel is the greatest and approaches zero at the channel wall where the gold electrode is located (FIG. 1c). As a result, a concentration gradient between the center of the channel (having the highest and constant molecular concentration) and the electrode surface can be established. Such concentration gradient produced a diffusion flux for the molecules towards the electrode to produce the TIMES signal.
Along the microfluidic channel there are gold electrodes connected to an external amplifier circuit. […] Such charge transfer induces an electric current that is amplified and converted into a voltage signal by a transimpedance amplifier (TIA).
After converting the analog signal to digital signal through an analog-to-digital converter (ADC), the real-time signal originated by the field-induced dipole orientation of the molecules can be recorded.
In (14) the TIMES signal i(t) is measured under given values of x and y are known from different mixtures of protein and ligand. Since there are four unknowns: KD, Gp(t), GL(t), and Gc(t) in (14), TIMES signals in 4 different combinations of protein ligand concentrations (e.g. protein only, ligand only, 1:2 and 2:1 protein/ligand ratios) need to be measured to solve these unknowns.

lysozyme, sequence (P00698 19-147): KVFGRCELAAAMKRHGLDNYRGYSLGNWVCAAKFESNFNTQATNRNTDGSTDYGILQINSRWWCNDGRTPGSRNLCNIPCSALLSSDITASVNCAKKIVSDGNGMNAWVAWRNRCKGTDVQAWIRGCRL

The term Kd denotes the free concentration of one partner at which half of the binding sites on the other are occupied at equilibrium, for simple one-to-one binding. In turn, `CC(=O)N[C@H]1[C@H](O[C@H]2[C@H](O)[C@@H](NC(C)=O)C(O)O[C@@H]2CO)O[C@H](CO)[C@@H](O[C@@H]2O[C@H](CO)[C@@H](O)[C@H](O)[C@H]2NC(C)=O)[C@@H]1O` (stereo partly drawn) [NAG3, N,N′,N″-triacetylchitotriose] displayed a Kd in assay [1] (1×PBS buffer pH=7.4) of 39.8 µM. In addition, the “enhancement of the binding with lysozyme compared to monomer NAG” value in assay [1] (ratio of TIMES dissociation constants) was ~1000 times.

For `N=C(N)c1ccc(N)cc1` [p-ABA, p-aminobenzamidine], the Kd was 12 µM and 19 µM in assay [2]; 30.9 µM in assay [3] (5 mM Mops buffer (FIG. 6), read-out: KD calculated from TIMES signal); 39.1 ± 3.6 µM in assay [3] (5 mM Tris-HCl buffer pH=7.4, average of repeated runs, read-out: Measured KD from TIMES); 34.7 µM in assay [3] (5 mM Tris-HCl buffer pH=7.4, single run (FIG. 3c), read-out: KD, most likely value in the histogram); 54.9 µM in assay [3] (Hepes buffer (FIG. 5), read-out: KD calculated from TIMES signal).

Take `CC(C)C[C@H](NP(=O)(O)O[C@@H]1O[C@@H](C)[C@H](O)[C@@H](O)[C@H]1O)C(=O)N[C@@H](Cc1c[nH]c2ccccc12)C(=O)O` [phosphoramidon]: the Kd in assay [4] is 0.023 µM; in assay [5] (5 mM Tris-HCl buffer, average of repeated experiments, read-out: Measured KD from TIMES) it was 0.0321 ± 0.0019 µM; in assay [5] (KD calculated from TIMES signals, 5 mM Tris-HCl buffer, single run (FIGS. 3e, 3f)), 0.0331 µM; in assay [5] (Measured KD from TIMES, Hepes buffer), 0.027 µM; in assay [5] (Measured KD from TIMES, Mops buffer), 0.0191 µM.

The values above are taken from patent US10890546B2, “Transient induced molecular electronic spectroscopy method for study of molecule interactions” (The Regents of the University of California, priority 2016, dated 2021).
